# Assay results from patent US7932277B2, “Peptide inhibitors of hepatitis C virus replication” (InterMune, Inc., priority 2007, dated 2011).
# Read-outs that look alike come from different tables or passages of the source.
# Tests used:
# [1] = system: HCV sub-genomic replicon (1377/NS3-3') in HuH-7 hepatoma cells (GS4.3); assay: Quantitation by ELISA of NPTII in the HCV sub-genomic replicon, GS4.3; assay type: cell-based, hepatitis C virus (HCV); details: Hepatitis C virus, read-out: Replicon EC50
# Procedure, shortened: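 GS4.3 cells (HuH-7 carrying HCV 1377/NS3-3′ replicon) treated 72 h at 37 °C with compound at 3-fold dilutions from 10 μM to 56 pM final, 1% DMSO, without G418. NPTII in lysates quantified by ELISA (450 nm). Signal expressed as percent of DMSO control; EC50 by 4-parameter fit.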
# [2] = target: T1, NS3/NS4A-2 (full-length HCV NS3 protease complexed with NS4A-2) (Hepatitis C virus genotype 1a, UniProt P27958); assay: NS3 inhibition assay (NS3-NS4 protease assay); assay type: biochemical
# T1 construct: Recombinant E. coli or Baculovirus full-length NS3; host or cells: E. coli or baculovirus (insect cells)
# T1 sequence (P27958 1027-1657, one chain of several): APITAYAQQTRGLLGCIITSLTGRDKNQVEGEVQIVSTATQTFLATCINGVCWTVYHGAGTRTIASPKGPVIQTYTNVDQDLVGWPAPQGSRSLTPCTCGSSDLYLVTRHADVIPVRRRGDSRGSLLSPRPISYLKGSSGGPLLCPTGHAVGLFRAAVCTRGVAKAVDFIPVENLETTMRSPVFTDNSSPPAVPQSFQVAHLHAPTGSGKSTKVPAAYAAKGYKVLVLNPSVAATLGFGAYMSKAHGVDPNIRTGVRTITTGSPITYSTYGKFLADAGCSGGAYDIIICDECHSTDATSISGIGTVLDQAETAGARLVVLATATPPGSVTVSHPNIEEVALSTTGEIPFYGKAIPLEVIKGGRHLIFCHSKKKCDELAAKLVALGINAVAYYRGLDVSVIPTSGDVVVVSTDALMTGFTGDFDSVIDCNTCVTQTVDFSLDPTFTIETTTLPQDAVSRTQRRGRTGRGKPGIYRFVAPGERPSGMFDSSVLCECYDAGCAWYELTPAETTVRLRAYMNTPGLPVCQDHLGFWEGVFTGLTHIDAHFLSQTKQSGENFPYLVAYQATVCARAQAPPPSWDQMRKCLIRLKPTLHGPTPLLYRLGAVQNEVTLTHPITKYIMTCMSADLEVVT
# Procedure, shortened: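 Full-length NS3 (E. coli-expressed at 2 nM or baculovirus-expressed at 3 nM) precomplexed with excess NS4A-2 peptide and preincubated with compound (top concentration 50 μM) for 10 min at room temperature. RETS1 substrate added; fluorescence read kinetically for 30 min (ex 335/em 495 nm). IC50 converted to Ki using Km 2.03 μM (E. coli) or 1.74 μM (baculovirus).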
SMILES,"EC50 ([1]; Huh-7, GS4.3 cells, 72 h incubation, NPTII ELISA) [nM]","IC50 ([2]; recombinant full-length NS3/NS4A-2, RETS1 substrate, kinetic fluorescence read, read-out: NS3-NS4 IC50) [nM]","EC50 ([1]; Huh-7, 72 h) [nM]",IC50 [2] [nM]
"C=C[C@@H]1C[C@]1(NC(=O)[C@@H]1C[C@@H](OC(=O)N2Cc3cccc(F)c3C2)CN1C(=O)[C@@H](Nc1ccc(Br)cc1)C(C)C)C(=O)NS(=O)(=O)C1CC1 [Compound 36, [(3R,5S)-5-((1R,2S)-1-(cyclopropylsulfonylcarbamoyl)-2-vinylcyclopropylcarbamoyl)-1-((S)-2-(4-bromophenylamino)-3-methylbutanoyl)pyrrolidin-3-yl]4-fluoroisoindoline-2-carboxylate]",100 to 1000,< 100,,
CC(C)(C)[C@H](Nc1cccc(C(F)(F)F)c1)C(=O)N1C[C@H]2[C@@H]([C@H]1C(=O)NC(CC1CCC1)C(=O)C(N)=O)C2(C)C (stereo partly shown) [Compound 68],,,10000 to 50000,100 to 1000
